Structures are written as SMILES. Some results are limits rather than exact numbers.

For test [1], the target named is MCL-1 protein (Homo sapiens, UniProt Q07820). In words: OPM-2 cells: MCL-1 protein degradation, Simple Western. Type of test: cell-based. Details: endogenous in cells; host or cells: OPM-2. The note with it: OPM-2 cell line, 6 h treatment, 100 nM compound, vs DMSO. From the text:
The effect of various compounds of the invention and the reference compounds on MCL-1protein degradation in the OPM-2 cell line was investigated, using the degradation assay protocol below.
OPM-2 cells were maintained in RPMI-1640 medium, supplemented with penicillin/streptomycin and 10% Fetal Bovine Serum (FBS). During the treatment, FBS concentration was reduced to 1%.
Compound stocks were pre-diluted in DMSO and added directly to the cells growth medium (final DMSO concentration: 0.5%).
OPM-2 cells were collected, centrifuged (250 rcf, 5 min), resuspended in a growth medium containing 1% FBS and counted. The cell suspension was then adjusted to 1×10^6 cell/ml using a growth medium containing 1% FBS. Afterwards, 0.5×10^6 cells were seeded on 24-well plates in 0.5 mL of medium per well. Immediately after seeding cells, compounds in appropriate concentrations were added to the cell culture medium.
Following the treatment with the compounds, cells were collected from the plates and suspended in a lysis buffer (2% SDS, 50 mM Tris, pH 8.0, 100 U/ml Pierce Universal Nuclease for Cell Lysis, cOmplete EDTA-free Protease Inhibitor Cocktail) and incubated on ice for 45 min.
The following steps, including sample loading, protein separation, immunoprobing or labelling, washes and detection analysis was performed using Jess from ProteinSimple, an automatic system for analyzing protein levels in cell lysates (12-230 kDa Jess or Wes separation module 8×25 capillaries, protein normalization assay, no. SM-PN01-1). The Protein of Interest was detected using MCL-1 (D35A5) Rabbit monoclonal antibody (Cell Signaling, #5453, LOT: 4). Antibody was diluted in a ratio of 1:100 in Antibody diluent.
[%] of protein reduction is calculated in comparison to the cells treated with DMSO, which stand for 0%.
The results for the 6 h treatment with 100 nM compounds are shown in Table 9, using the following labels: • <20% for 0-19% of MCL-1 protein reduction, • ≥20% for 20-39% of MCL-1 protein reduction, • ≥40% for 40-100% of MCL-1 protein reduction.

Test [2] deals with T1, [MCL-1]-[compound of formula (I)]-[CRBN/DDB1] complex (Homo sapiens, UniProt Q07820+Q96SW2). Description: AlphaLISA dose response ternary complex formation assay. Type of test: binding. The note with it: read-out: AlphaLISA dose response Average pEC50 by molecule (converted). The method, boiled down:
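EC50 comes from dose–response of AlphaLISA luminescence (excitation 680, emission 615 nm), normalised between DMSO background and an internal positive control, with concentrations past the hook point dropped. Ternary complex formed by mixing bead-bound biotin-hMCL-1 and His-CRBN/DDB1 (protein solutions 40 and 200 nM) with compound in 2% DMSO, 30 min, 25 °C.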
On the technique in general: In Alpha technology, singlet oxygen from a donor bead excites a nearby acceptor bead.

Test [3] relates to MV-4-11 cells. In words: Cell viability assay (CellTiter-Glo), MV-4-11. It is filed as cell-based. The note with it: Homo sapiens, MV4-11, 24 hours incubation, 1% FBS, read-out: Average pIC50 by molecule MV-4-11 (converted). The method, boiled down:
(§1)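 OPM-2, MV-4-11 and ARH-77 cells were grown in medium with 1% FBS and treated with compound in 1/3 dilutions from 30 uM (9–12 points, 0.5% DMSO). Viability was read by CellTiter-Glo luminescence after 24 hours and normalized to DMSO control.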
(ATP-based viability assays read luminescence as a measure of living cells.)

Test [4] deals with DMS 114 cells. In words: Cell viability assay (CellTiter-Glo), DMS 114. The note with it: Homo sapiens, DMS-114, 72 h, 72 hours incubation, 10% FBS, read-out: Average pIC50 by molecule DMS 114 (converted). It is filed as cell-based. From the text:
The effect of various compounds of the invention on the viability of DMS 114 cell line was investigated, using the CTG protocol described below.
DMS 114 cell line is derived from small-cell lung cancer, which is described in the literature as MCL-1 dependent lines [Yasuda Y et al. Cell Death & Disease 2020; 11: 177].
DMS 114 cells were detached with trypsin and then resuspended in growth medium containing 10% FBS and counted. Cell suspension was then adjusted to 5×10^4 cells/ml using growth medium containing 10% FBS. Afterwards, […] were seeded on 384-well plates (50 μl). Plates were then placed in the incubator overnight until treated. Next day, compounds were added using ECHO 555 liquid handler. Compound concentrations used in this assay: 1/3 dilutions starting at 30 uM (9 to 12 points).
After 72 hours of incubation, cell viability was evaluated using CellTiter-Glo Luminescent Cell Viability Assay (Promega, cat #G7572). Luminescence signal was measured using a CLARIOstar Plus Multi-Mode Microplate Reader (574-590 nm).

Test [5] concerns ARH-77 cells. Description: Cell viability assay (CellTiter-Glo), ARH-77. It is filed as cell-based. The note with it: Homo sapiens, ARH-77, 24 hours incubation, 1% FBS, read-out: Average pIC50 by molecule ARH-77 (converted). The method in brief: as §1
The target of test [6] is T1, [MCL-1]-[compound of formula (I)]-[CRBN/DDB1] complex. Description: HTRF ternary complex assay. It is filed as binding. The note with it: ternary complex formation; read-out: HTRF ternary complex Average pEC50 by molecule (converted). The method in brief:
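hMcl-1 and CRBN (mix at 48 nM and 105.6 nM) with Streptavidin-Eu cryptate and anti-6×His-d2 in PPI Europium buffer with 2 mM DTT; compounds in dose-response, 0.5% DMSO. Incubated 180 min at 25° C, TR-FRET 665/620 read. Bell-shaped curve fitted by Gaussian; EC50 reported.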
(In TR-FRET formats the signal depends on donor and acceptor labels being close together.)

Chain of MCL-1 protein (Q07820 whole entry): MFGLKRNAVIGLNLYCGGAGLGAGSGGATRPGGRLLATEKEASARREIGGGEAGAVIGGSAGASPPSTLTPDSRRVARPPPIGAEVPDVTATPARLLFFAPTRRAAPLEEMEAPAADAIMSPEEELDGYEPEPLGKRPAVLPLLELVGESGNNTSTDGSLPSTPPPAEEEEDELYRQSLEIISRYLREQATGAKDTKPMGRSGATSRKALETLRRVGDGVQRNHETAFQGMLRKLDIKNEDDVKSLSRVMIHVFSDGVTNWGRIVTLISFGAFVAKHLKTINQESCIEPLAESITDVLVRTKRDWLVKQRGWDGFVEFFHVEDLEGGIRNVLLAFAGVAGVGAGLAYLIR
T1 sequence (Q07820 whole entry): as above
T1 sequence (Q96SW2 whole entry): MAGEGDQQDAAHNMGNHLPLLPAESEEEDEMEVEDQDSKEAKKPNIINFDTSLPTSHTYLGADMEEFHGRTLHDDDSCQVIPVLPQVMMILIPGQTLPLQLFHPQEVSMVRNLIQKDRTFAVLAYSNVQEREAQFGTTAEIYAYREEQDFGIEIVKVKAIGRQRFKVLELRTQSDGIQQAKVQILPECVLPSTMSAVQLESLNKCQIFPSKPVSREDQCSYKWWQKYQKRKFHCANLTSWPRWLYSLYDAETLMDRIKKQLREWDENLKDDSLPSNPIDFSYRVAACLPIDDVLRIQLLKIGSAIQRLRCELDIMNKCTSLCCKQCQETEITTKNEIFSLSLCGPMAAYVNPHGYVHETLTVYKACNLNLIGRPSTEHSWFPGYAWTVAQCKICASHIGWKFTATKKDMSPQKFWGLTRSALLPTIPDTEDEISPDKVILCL
T1 sequence (Q16531 whole entry partner): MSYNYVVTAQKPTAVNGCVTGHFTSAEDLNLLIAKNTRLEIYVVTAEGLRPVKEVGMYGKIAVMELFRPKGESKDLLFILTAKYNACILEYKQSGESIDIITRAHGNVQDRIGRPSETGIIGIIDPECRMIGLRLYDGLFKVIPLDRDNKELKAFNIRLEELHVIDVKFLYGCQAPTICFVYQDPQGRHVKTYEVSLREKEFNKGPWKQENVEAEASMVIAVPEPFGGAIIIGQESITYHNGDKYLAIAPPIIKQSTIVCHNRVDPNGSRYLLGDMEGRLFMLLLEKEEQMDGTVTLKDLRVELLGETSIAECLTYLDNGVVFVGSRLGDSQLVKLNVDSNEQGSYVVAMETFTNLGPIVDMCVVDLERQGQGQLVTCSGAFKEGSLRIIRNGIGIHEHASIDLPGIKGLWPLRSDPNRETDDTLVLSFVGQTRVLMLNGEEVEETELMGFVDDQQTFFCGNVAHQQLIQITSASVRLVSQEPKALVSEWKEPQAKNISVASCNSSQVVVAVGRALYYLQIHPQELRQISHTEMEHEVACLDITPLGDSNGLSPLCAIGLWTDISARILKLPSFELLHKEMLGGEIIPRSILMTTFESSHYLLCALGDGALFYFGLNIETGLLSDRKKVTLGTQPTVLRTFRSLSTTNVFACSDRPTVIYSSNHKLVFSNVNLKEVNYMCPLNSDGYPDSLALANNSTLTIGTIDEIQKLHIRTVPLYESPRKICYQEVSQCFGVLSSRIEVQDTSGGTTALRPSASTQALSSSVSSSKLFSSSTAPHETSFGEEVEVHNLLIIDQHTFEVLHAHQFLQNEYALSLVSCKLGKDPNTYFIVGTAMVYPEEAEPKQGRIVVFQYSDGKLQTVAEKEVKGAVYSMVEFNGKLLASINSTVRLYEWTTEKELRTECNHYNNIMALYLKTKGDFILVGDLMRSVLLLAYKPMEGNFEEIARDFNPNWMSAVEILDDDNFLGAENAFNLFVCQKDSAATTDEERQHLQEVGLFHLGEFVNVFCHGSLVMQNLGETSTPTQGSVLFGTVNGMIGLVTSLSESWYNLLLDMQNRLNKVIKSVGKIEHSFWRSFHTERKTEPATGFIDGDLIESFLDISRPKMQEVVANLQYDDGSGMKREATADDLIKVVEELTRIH

With `Cc1nc2c(C(=O)NC3CCC(=O)NC3=O)c(OCC(=O)N3CCN(CCn4c(C(=O)O)c(CCCOc5cccc6ccccc56)c5ccc(Cl)c(-c6c(C)nn(C)c6C)c54)CC3)ccc2[nH]1` (centres unmarked) [Compound 264, 6-chloro-1-(2-(4-(2-((4-((2,6-dioxopiperidin-3-yl)carbamoyl)-2-methyl-1H-benzo[d]imidazol-5-yl)oxy)acetyl)piperazin-1-yl)ethyl)-3-(3-(naphthalen-1-yloxy)propyl)-7-(1,3,5-trimethyl-1H-pyrazol-4-yl)-1H-indole-2-carboxylic acid], the “Simple Western, % of protein reduction” value in test [1] was no less than 20%.

For `COc1cc(C(=O)NC2CCC(=O)NC2=O)c2nc(C)n(CC(=O)N3CCN(CCn4c(C(=O)O)c(CCCOc5cccc6cc(F)ccc56)c5ccc(Cl)c(-c6c(C)nn(C)c6C)c54)CC3)c2c1` (centres unmarked) [Compound 277, 6-Chloro-1-{2-[4-(2-{4-[(2,6-dioxopiperidin-3-yl)carbamoyl]-6-methoxy-2-methyl-1H-1,3-benzodiazol-1-yl}acetyl)piperazin-1-yl]ethyl}-3-{3-[(6-fluoronaphthalen-1-yl)oxy]propyl}-7-(1,3,5-trimethyl-1H-pyrazol-4-yl)-1H-indole-2-carboxylic acid], the EC50 in test [2] is less than 100 nM. In addition, the IC50 in test [3] is no more than 100 nM; in test [4] it was no more than 3160 nM; in test [5], greater than 10 µM.

In the case of `Cc1nn(C)c(C)c1-c1c(Cl)ccc2c(CCCOc3cccc4cc(F)ccc34)c(C(=O)O)n(CC[N+]3([O-])CCN(C(=O)COc4cccc5c4CN(C4CCC(=O)NC4=O)C5=O)CC3)c12` (centres unmarked) [Compound 298, 1-(2-(2-Carboxy-6-chloro-3-(3-((6-fluoronaphthalen-1-yl)oxy)propyl)-7-(1,3,5-trimethyl-1H-pyrazol-4-yl)-1H-indol-1-yl)ethyl)-4-(2-((2-(2,6-dioxopiperidin-3-yl)-1-oxoisoindolin-4-yl)oxy)acetyl)piperazine 1-oxide], in test [2], the EC50 was less than 10 nM. Also, the results for the IC50 in test [3], in test [4] and in test [5] were no more than 100 nM, no more than 1000 nM and greater than 10 µM, respectively.

Take `Cc1c(-c2c(-c3ccc(F)o3)sc3ncnc(O[C@H](Cc4ccccc4OCc4ccnn4CC(F)(F)F)C(=O)NS(=O)(=O)CCNC(=O)CCOCCOCCNc4cccc5c4C(=O)N(C4CCC(=O)NC4=O)C5=O)c23)ccc(OCCN2CCN(C)CC2)c1Cl` (stereo partly drawn) [Compound 260, (2R)-2-[(5-{3-chloro-2-methyl-4-[2-(4-methylpiperazin-1-yl)ethoxy]phenyl}-6-(5-fluorofuran-2-yl)thieno[2,3-d]pyrimidin-4-yl)oxy]-N-(2-{3-[2-(2-{[2-(2,6-dioxopiperidin-3-yl)-1,3-dioxo-2,3-dihydro-1H-isoindol-4-yl]amino}ethoxy)ethoxy]propanamido}ethanesulfonyl)-3-(2-{[1-(2,2,2-trifluoroethyl)-1H-pyrazol-5-yl]methoxy}phenyl)propanamide]: in test [1], the “Simple Western, % of protein reduction” value is no less than 20%.

On to `Cc1nn(C)c(COc2ccc(N3CCN(S(=O)(=O)N(C)C)CC3)cc2)c1-c1cccc2c(CCCOc3cccc4ccccc34)c(C(=O)O)n(CCN3CCN(C(=O)COc4cccc5c4CN(C4CCC(=O)NC4=O)C5=O)CC3)c12` (centres unmarked) [Compound 249, 7-(5-((4-(4-(N,N-dimethylsulfamoyl)piperazin-1-yl)phenoxy)methyl)-1,3-dimethyl-1H-pyrazol-4-yl)-1-(2-(4-(2-((2-(2,6-dioxopiperidin-3-yl)-1-oxoisoindolin-4-yl)oxy)acetyl)piperazin-1-yl)ethyl)-3-(3-(naphthalen-1-yloxy)propyl)-1H-indole-2-carboxylic acid], for which, in test [2], the EC50 was less than 100 nM. Moreover, in test [3], the IC50 is no more than 1000 nM. Besides, in test [1], the “Simple Western, % of protein reduction” value is given as no less than 20%.

For the compound `Cc1nn(C)c(C)c1-c1c(F)ccc2c(CCCOc3cccc4ccccc34)c(C(=O)O)n(CCN3CCN(C(=O)COc4cccc5c4C(=O)N(C4CCC(=O)NC4=O)C5=O)CC3)c12` (centres unmarked) [Compound 213, 1-{2-[4-(2-{[2-(2,6-dioxopiperidin-3-yl)-1,3-dioxo-2,3-dihydro-1H-isoindol-4-yl]oxy}acetyl)piperazin-1-yl]ethyl}-6-fluoro-3-[3-(naphthalen-1-yloxy)propyl]-7-(1,3,5-trimethyl-1H-pyrazol-4-yl)-1H-indole-2-carboxylic acid], the EC50 in test [2] is less than 100 nM. The IC50 in test [3] was no more than 316 nM; in test [5], greater than 10 µM. For the same compound, the “Simple Western, % of protein reduction” value in test [1] was no less than 40%.

In the case of `Cc1ccc2c(CCCOc3cccc4ccccc34)c(C(=O)O)n(CCN3CCN(C(=O)COc4cccc5c4C(=O)N(C4CCC(=O)NC4=O)C5=O)CC3)c2c1-c1c(C)nn(C)c1C` (centres unmarked) [Compound 217, 1-(2-(4-(2-((2-(2,6-dioxopiperidin-3-yl)-1,3-dioxoisoindolin-4-yl)oxy)acetyl)piperazin-1-yl)ethyl)-6-methyl-3-(3-(naphthalen-1-yloxy)propyl)-7-(1,3,5-trimethyl-1H-pyrazol-4-yl)-1H-indole-2-carboxylic acid], the EC50 in test [2] is less than 100 nM. In addition, the IC50 in test [3] was no more than 1000 nM. In addition, in test [1], the “Simple Western, % of protein reduction” value is no less than 40%.

Turning to `Cc1nn(C)c(COc2ccc(N3CCN(S(=O)(=O)N(C)C)CC3)cc2)c1-c1cccc2c(CCCOc3cccc4ccccc34)c(C(=O)O)n(CCN3CCN(C(=O)CNc4cccc5c4C(=O)N(C4CCC(=O)NC4=O)C5=O)CC3)c12` (centres unmarked) [Compound 245, 7-(5-((4-(4-(N,N-dimethylsulfamoyl)piperazin-1-yl)phenoxy)methyl)-1,3-dimethyl-1H-pyrazol-4-yl)-1-(2-(4-((2-(2,6-dioxopiperidin-3-yl)-1,3-dioxoisoindolin-4-yl)glycyl)piperazin-1-yl)ethyl)-3-(3-(naphthalen-1-yloxy)propyl)-1H-indole-2-carboxylic acid], in test [2], the EC50 is less than 1000 nM. In addition, the “Simple Western, % of protein reduction” value in test [1] is given as no less than 20%.

With `Cc1nn(C)c(C)c1-c1c(Cl)ccc2c(CCCOc3cccc4cc(F)ccc34)c(C(=O)O)n(CCCNC(=O)Cn3c(C)nc4c(C(=O)NC5CCC(=O)NC5=O)cccc43)c12` (centres unmarked) [Compound 281, 6-Chloro-1-[3-(2-{4-[(2,6-dioxopiperidin-3-yl)carbamoyl]-2-methyl-1H-1,3-benzodiazol-1-yl}acetamido)propyl]-3-{3-[(6-fluoronaphthalen-1-yl)oxy]propyl}-7-(1,3,5-trimethyl-1H-pyrazol-4-yl)-1H-indole-2-carboxylic acid], the EC50 in test [2] was less than 100 nM; in test [6] it was less than 10 nM. Further, the IC50 was no more than 100 nM in test [3] and greater than 10 µM in test [5].

Source of the values: patent US20240294499A1, “TARGETED PROTEIN DEGRADATION USING BIFUNCTIONAL COMPOUNDS THAT BIND UBIQUITIN LIGASE AND TARGET MCL-1 PROTEIN” (Captor Therapeutics S.A., priority 2021, published 2024).
